From PubChem BioAssay AID328 (DTP/NCI, 2004) come the findings set out here.

Structures are written as SMILES. Values joined by “and” are separate entries in the source; they are usually repeats but may differ in a detail not shown here. Equal values may be shown once. Toxic doses and inconclusive results are not listed.

For the experiment, the system named is BDF1 mice, P388 leukemia ip, median survival T/C. Nature of the experiment: NCI In Vivo Anticancer Drug Screen. Data for tumor model P388 Leukemia (intraperitoneal) in B6D2F1 (BDF1) mice. To be noted: endpoint: median survival time, higher = longer survival. Put shortly: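 Each value expresses how treatment altered survival: treated-mouse outcome over vehicle-mouse outcome, both groups bearing the transplanted tumour.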

Where [1] appears, read: dose: 100.0 mg/kg/injection, schedule: Q01DX009 (ip), vehicle: saline.
Where [2] appears, read: dose: 100.0 mg/kg/injection, schedule: Q04DX003 (ip), vehicle: saline.
The mark [3] stands for this setting: dose: 200.0 mg/kg/injection, schedule: Q04DX003 (ip), vehicle: saline.
[4] abbreviates: dose: 400.0 mg/kg/injection, schedule: Q04DX003 (ip), vehicle: saline.
The mark [5] stands for this setting: dose: 100.0 mg/kg/injection, schedule: Q04DX003 (ip), vehicle: saline with Tween-80.
[6] abbreviates: dose: 200.0 mg/kg/injection, schedule: Q04DX003 (ip), vehicle: saline with Tween-80.
Setting [7] is: dose: 400.0 mg/kg/injection, schedule: Q04DX003 (ip), vehicle: saline with Tween-80.
Setting [8] is: dose: 6.25 mg/kg/injection, schedule: Q01DX009 (ip), vehicle: saline.
The mark [9] stands for this setting: dose: 12.5 mg/kg/injection, schedule: Q01DX009 (ip), vehicle: saline.
Setting [10] is: dose: 25.0 mg/kg/injection, schedule: Q01DX009 (ip), vehicle: saline.
[11] abbreviates: dose: 12.5 mg/kg/injection, schedule: Q04DX003 (ip), vehicle: saline with Tween-80.
[12] abbreviates: dose: 25.0 mg/kg/injection, schedule: Q04DX003 (ip), vehicle: saline with Tween-80.
The mark [13] stands for this setting: dose: 50.0 mg/kg/injection, schedule: Q04DX003 (ip), vehicle: saline with Tween-80.
Where [14] appears, read: dose: 6.25 mg/kg/injection, schedule: Q01DX009 (ip), vehicle: Klucel (hydroxypropylcellulose) (HPC).
The mark [15] stands for this setting: dose: 100.0 mg/kg/injection, schedule: Q01DX009 (ip), vehicle: saline with Tween-80.
Setting [16] is: dose: 200.0 mg/kg/injection, schedule: Q01DX009 (ip), vehicle: saline with Tween-80.
[17] abbreviates: dose: 400.0 mg/kg/injection, schedule: Q01DX009 (ip), vehicle: saline with Tween-80.

With `CCOC(=O)C1CC[N+](=c2cc(-c3ccc(Cl)cc3)ss2)CC1` (stereo not given), the T/C reads like this: (dose: 50.0 mg/kg/injection, schedule: Q01DX009 (ip), vehicle: saline) 101 % of control; (dose: 50.0 mg/kg/injection, schedule: Q04DX003 (ip), vehicle: saline) 106 % of control; under setting [1], 99 % of control; under setting [2], 116 % of control; under setting [3], 116 % of control; under setting [4], 116 % of control.

On to `CSC1C(=O)Nc2ccc(Cl)cc21` (stereo not given), for which the T/C is, setting by setting: under setting [5], 97 % of control and 108 % of control; under setting [6], 98 % of control and 99 % of control; under setting [7], 99 % of control and 110 % of control; (dose: 600.0 mg/kg/injection, schedule: Q04DX003 (ip), vehicle: saline with Tween-80) 92 % of control.

In the case of `CC(CS(=O)(=O)O)N1CCOCC1` (stereo not given), the T/C is, setting by setting: under setting [1], 91 % of control; under setting [2], 104 % of control; (dose: 200.0 mg/kg/injection, schedule: Q01DX009 (ip), vehicle: saline) 104 % of control; under setting [3], 100 % of control; under setting [4], 95 % of control.

Regarding `CS(=O)(=O)OCC(=O)NCC(O)CNC(=O)COS(C)(=O)=O`, the T/C by setting is: (dose: 78.0 mg/kg/injection, schedule: Q04DX003 (ip), vehicle: saline with Tween-80) 150 % of control; (dose: 177.0 mg/kg/injection, schedule: Q04DX003 (ip), vehicle: saline with Tween-80) 161 % of control; (dose: 264.0 mg/kg/injection, schedule: Q04DX003 (ip), vehicle: saline with Tween-80) 231 % of control and 157 % of control; under setting [7], 209 % of control.

Turning to `CC1(C)N=C(N)N=C(N)N1c1cccc(CCCCc2cccc(S(=O)(=O)F)c2)c1`, the T/C runs as follows: (dose: 1.5 mg/kg/injection, schedule: Q04DX003 (ip), vehicle: saline) 118 % of control; (dose: 4.0 mg/kg/injection, schedule: Q04DX003 (ip), vehicle: saline with Tween-80) 109 % of control; (dose: 6.0 mg/kg/injection, schedule: Q04DX003 (ip), vehicle: saline with Tween-80) 113 % of control; under setting [8], 108 % of control; (dose: 9.0 mg/kg/injection, schedule: Q04DX003 (ip), vehicle: saline with Tween-80) 118 % of control; under setting [9], 116 % of control. Also, under setting [10], the T/C was 116 % of control.

On to `CC(=O)CC(C)=O.CC(=O)CC(C)=O.[Fe]`, for which the T/C runs as follows: under setting [8], 113 % of control; (dose: 6.25 mg/kg/injection, schedule: Q04DX003 (ip), vehicle: saline) 113 % of control; under setting [9], 104 % of control; (dose: 12.5 mg/kg/injection, schedule: Q04DX003 (ip), vehicle: saline) 113 % of control; under setting [10], 113 % of control; (dose: 25.0 mg/kg/injection, schedule: Q04DX003 (ip), vehicle: saline) 113 % of control. Also, the T/C (dose: 35.0 mg/kg/injection, schedule: Q04DX003 (ip), vehicle: saline) was 113 % of control.

Take `CN=C(NC)c1ccc(NC(=O)/C=C\c2ccc(C(=O)Nc3ccc(C(=NC)NC)cc3)cc2)cc1`: the T/C is 116 % of control (dose: 0.15 mg/kg/injection, schedule: Q01DX009 (ip), vehicle: saline with Tween-80); 155 % of control (dose: 0.5 mg/kg/injection, schedule: Q01DX009 (ip), vehicle: saline with Tween-80); 108 % of control (dose: 1.32 mg/kg/injection, schedule: Q04DX003 (ip), vehicle: saline with Tween-80); 161 % of control (dose: 1.5 mg/kg/injection, schedule: Q01DX009 (ip), vehicle: saline with Tween-80); 112 % of control (dose: 2.0 mg/kg/injection, schedule: Q04DX003 (ip), vehicle: saline with Tween-80); 154 % of control (dose: 4.4 mg/kg/injection, schedule: Q04DX003 (ip), vehicle: saline with Tween-80). The T/C reads like this: (dose: 4.5 mg/kg/injection, schedule: Q04DX003 (ip), vehicle: saline with Tween-80) 162 % of control; (dose: 6.6 mg/kg/injection, schedule: Q04DX003 (ip), vehicle: saline with Tween-80) 168 % of control; (dose: 10.0 mg/kg/injection, schedule: Q04DX003 (ip), vehicle: saline with Tween-80) 154 % of control; under setting [11], 177 % of control; (dose: 15.0 mg/kg/injection, schedule: Q04DX003 (ip), vehicle: saline with Tween-80) 177 % of control; under setting [12], 100 % of control. Besides, under setting [13], the T/C is 86 % of control.

For the compound `O=C(O)CCSSc1ccc([N+](=O)[O-])cc1[N+](=O)[O-]`, the T/C is 95 % of control under setting [14]; 100 % of control (dose: 6.25 mg/kg/injection, schedule: Q04DX003 (ip), vehicle: Klucel (hydroxypropylcellulose) (HPC)); 100 % of control (dose: 12.5 mg/kg/injection, schedule: Q01DX009 (ip), vehicle: Klucel (hydroxypropylcellulose) (HPC)); 109 % of control (dose: 12.5 mg/kg/injection, schedule: Q04DX003 (ip), vehicle: Klucel (hydroxypropylcellulose) (HPC)); 104 % of control (dose: 25.0 mg/kg/injection, schedule: Q01DX009 (ip), vehicle: Klucel (hydroxypropylcellulose) (HPC)); 109 % of control (dose: 25.0 mg/kg/injection, schedule: Q04DX003 (ip), vehicle: Klucel (hydroxypropylcellulose) (HPC)).

In the case of `CN1CCC(CN2c3ccccc3Sc3ccccc32)CC1`, the T/C is 105 % of control (dose: 1.56 mg/kg/injection, schedule: Q01DX009 (ip), vehicle: Klucel (hydroxypropylcellulose) (HPC)); 86 % of control and 105 % of control (dose: 3.12 mg/kg/injection, schedule: Q01DX009 (ip), vehicle: Klucel (hydroxypropylcellulose) (HPC)); 95 % of control under setting [14]; 95 % of control (dose: 8.75 mg/kg/injection, schedule: Q04DX003 (ip), vehicle: Klucel (hydroxypropylcellulose) (HPC)); 95 % of control (dose: 17.5 mg/kg/injection, schedule: Q04DX003 (ip), vehicle: Klucel (hydroxypropylcellulose) (HPC)); 109 % of control (dose: 35.0 mg/kg/injection, schedule: Q04DX003 (ip), vehicle: Klucel (hydroxypropylcellulose) (HPC)). The T/C runs as follows: (dose: 50.0 mg/kg/injection, schedule: Q04DX003 (ip), vehicle: Klucel (hydroxypropylcellulose) (HPC)) 110 % of control; (dose: 80.0 mg/kg/injection, schedule: Q04DX003 (ip), vehicle: Klucel (hydroxypropylcellulose) (HPC)) 120 % of control; under setting [5], 118 % of control; under setting [6], 86 % of control.

As for `CC(=O)OCC(Br)C(Br)COC(C)=O` (stereo not given), the T/C is, setting by setting: under setting [15], 109 % of control; under setting [16], 109 % of control; under setting [17], 109 % of control.

On to `C=CCOc1ccccc1OC`, for which the T/C by setting is: (dose: 25.0 mg/kg/injection, schedule: Q01DX009 (ip), vehicle: saline with Tween-80) 100 % of control; (dose: 50.0 mg/kg/injection, schedule: Q01DX009 (ip), vehicle: saline with Tween-80) 113 % of control; under setting [15], 107 % of control and 113 % of control; under setting [5], 100 % of control; under setting [16], 100 % of control; under setting [6], 113 % of control.

In the case of `CNC(=S)N/N=C/c1ccc([N+](=O)[O-])s1`, under setting [17], the T/C was 94 % of control.

For the compound `CCCCCCCCCCCCNC`, the T/C under setting [11] is 104 % of control, the T/C under setting [12] was 109 % of control and the T/C under setting [13] is 100 % of control.
